Experimental data from patent US20230119502A1, “Collagen Nucleation Inhibitors” (Northeastern University, priority 2020, published 2023).
Values after ≈ are worked out from the molar mass of the structure shown. Read-outs that look alike come from different tables or passages of the source.

What was measured:
[1] = molecular target: T1, acetic acid-extracted bovine type I collagen (Bos taurus, UniProt P02453+P02465); type: biochemical; conditions: for effect on collagen assembly: 0.5 M (each component 0.5 M for Gal with acetic acid; 0.5 M total for ratios); for effect on collagen assembly / critical concentration at which collagen assembly was completely inhibited / effect on collagen assembly kinetics and ODmax / lag time (lag phase at 30% assembly): 1 mg/mL collagen; for critical concentration at which collagen assembly was completely inhibited: 37° C., pH 7.3; for effect on collagen assembly kinetics and ODmax: 0.125 M; for lag time (lag phase at 30% assembly): 0.25 M total saccharide; for Rates of Collagen Assembly (KA), 30% to 70%: n=9, ± SD
T1 construct: acetic acid-extracted bovine type I collagen; purchased Advanced Biomatrix 5026-1 KIT
T1 sequence (P02453 162-1217 limits assumed): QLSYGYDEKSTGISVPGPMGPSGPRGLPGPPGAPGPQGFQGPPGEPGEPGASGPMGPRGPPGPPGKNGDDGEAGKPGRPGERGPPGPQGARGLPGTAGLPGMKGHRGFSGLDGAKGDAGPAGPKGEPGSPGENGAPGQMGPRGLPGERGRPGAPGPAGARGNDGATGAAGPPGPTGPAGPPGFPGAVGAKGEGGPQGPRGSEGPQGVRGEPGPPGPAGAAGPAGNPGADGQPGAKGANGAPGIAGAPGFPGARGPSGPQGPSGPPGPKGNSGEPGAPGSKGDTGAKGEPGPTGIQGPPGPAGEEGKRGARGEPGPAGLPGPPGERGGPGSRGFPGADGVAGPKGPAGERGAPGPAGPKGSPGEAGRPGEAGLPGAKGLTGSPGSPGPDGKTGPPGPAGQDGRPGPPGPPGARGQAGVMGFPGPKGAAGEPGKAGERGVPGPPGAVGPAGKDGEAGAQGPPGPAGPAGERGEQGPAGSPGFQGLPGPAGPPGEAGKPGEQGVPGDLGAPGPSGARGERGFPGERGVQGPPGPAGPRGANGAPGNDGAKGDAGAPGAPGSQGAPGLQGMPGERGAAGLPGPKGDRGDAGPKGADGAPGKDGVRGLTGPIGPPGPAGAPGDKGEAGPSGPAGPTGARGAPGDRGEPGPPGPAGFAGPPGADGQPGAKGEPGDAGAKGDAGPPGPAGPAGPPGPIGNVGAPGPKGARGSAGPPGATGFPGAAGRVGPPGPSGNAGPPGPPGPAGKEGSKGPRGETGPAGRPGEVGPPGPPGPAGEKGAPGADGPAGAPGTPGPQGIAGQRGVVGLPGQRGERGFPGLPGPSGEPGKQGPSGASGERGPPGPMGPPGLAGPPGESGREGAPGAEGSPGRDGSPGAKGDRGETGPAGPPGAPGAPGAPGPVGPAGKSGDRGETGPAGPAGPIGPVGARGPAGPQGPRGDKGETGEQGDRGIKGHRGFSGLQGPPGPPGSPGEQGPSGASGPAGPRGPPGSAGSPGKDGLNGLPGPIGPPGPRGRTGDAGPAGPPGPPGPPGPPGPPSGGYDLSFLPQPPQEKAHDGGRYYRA
T1 sequence (P02465 80-1117 limits assumed): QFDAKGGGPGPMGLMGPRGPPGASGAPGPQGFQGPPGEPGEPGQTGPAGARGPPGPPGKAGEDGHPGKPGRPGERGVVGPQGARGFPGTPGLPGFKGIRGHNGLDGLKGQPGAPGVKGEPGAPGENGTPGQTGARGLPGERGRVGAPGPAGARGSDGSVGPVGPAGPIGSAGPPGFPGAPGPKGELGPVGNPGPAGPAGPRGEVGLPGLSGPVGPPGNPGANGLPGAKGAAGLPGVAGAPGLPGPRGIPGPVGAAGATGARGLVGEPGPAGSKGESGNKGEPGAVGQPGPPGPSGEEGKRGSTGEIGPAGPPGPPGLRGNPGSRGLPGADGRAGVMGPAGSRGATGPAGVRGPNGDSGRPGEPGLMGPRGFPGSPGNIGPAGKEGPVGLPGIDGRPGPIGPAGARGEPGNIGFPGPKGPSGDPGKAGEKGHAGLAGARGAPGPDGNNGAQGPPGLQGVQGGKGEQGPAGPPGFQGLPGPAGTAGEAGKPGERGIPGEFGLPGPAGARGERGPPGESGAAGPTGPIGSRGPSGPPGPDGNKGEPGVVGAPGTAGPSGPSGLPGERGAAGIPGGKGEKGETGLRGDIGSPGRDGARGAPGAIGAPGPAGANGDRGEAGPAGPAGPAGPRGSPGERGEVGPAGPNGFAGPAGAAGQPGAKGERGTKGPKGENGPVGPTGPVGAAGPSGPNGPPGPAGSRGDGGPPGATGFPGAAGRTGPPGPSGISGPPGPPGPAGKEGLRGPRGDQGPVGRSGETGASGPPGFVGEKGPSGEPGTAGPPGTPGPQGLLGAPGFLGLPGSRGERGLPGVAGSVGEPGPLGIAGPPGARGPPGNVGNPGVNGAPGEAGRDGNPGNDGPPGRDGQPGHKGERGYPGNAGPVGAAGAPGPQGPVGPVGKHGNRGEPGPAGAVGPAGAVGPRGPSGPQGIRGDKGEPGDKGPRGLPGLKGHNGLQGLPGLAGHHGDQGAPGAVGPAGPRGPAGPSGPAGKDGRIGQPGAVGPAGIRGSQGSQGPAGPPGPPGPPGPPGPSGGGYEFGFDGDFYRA
Procedure: In the experiments below, acetic acid-extracted bovine type I collagen (Advanced Biomatrix, 5026-1 KIT) was mixed with monosaccharide solutions, and/or acetic acid, such that the final collagen concentration was either 0.5 or 1 mg/mL and final saccharide concentration ranged from 0-1 M. Concentrated Tris-buffered saline (10×TBS) at 0.25 M trizma base (Sigma Aldrich, T4661) and 1.3 M sodium chloride
(Fisher Chemical, S271-500), was used as 10% of the solution volume to maintain a physiological pH and ionic strength, and 0.25 M sodium hydroxide was used for a final pH adjustment to 7.3. Any remaining volume in the solution recipes was fulfilled via the addition of deionized water.
Experiments included mixing collagen with a concentrated monosaccharide solution, neutralizing it, and measuring turbidity spectrophotometrically (313 nm) over the course of two hours. In the absence of monosaccharides, 1 mg/mL collagen fully polymerized within minutes, as expected (Williams, B. R., et al., 1978). […] The increased ODmax caused by the monosaccharides cannot be fully attributed to the contribution of the monosaccharides in solution (Table 2) (Hayashi & Nagai, 1972; Wood & Keech, 1960).
To study the assembly of collagen, the kinetics of collagen assembly in the presence of monosaccharides were monitored using a plate-reader spectrophotometer (Molecular Devices, SpectraMax M5). Working in triplicate, 100 μL of the mixed collagen and saccharide solution was pipetted into a 96-well plate and layered with 100 μL of silicone oil to prevent evaporation. […] Each test condition was repeated three times for a total of n=9 data sets.
The analyze the assembly kinetics, turbidity assays were analyzed and normalized between 0-1 using Equation 1, where OD represents the optical density.
To analyze the kinetics, 0% assembly was defined as the absorbance value when the minimum absorbance was recorded, and 100% corresponded to the maximum value. 10, 30, 70 and 90% absorbance and corresponding timepoints were calculated using linear interpolation between the two bounding data points. Error bars were calculated as standard error of the mean. Rate of assembly was determined by calculating the slope between 30% and 70% assembly for each data set.

[2] = molecular target: pre-established 1 mg/mL collagen networks (Bos taurus, UniProt P02453+P02465); conditions: 37° C., 180 minutes, critical concentration
Chain of pre-established 1 mg/mL collagen networks (P02453 162-1217 limits assumed): as the sequence (P02453 162-1217 limits assumed) above
Chain of pre-established 1 mg/mL collagen networks (P02465 80-1117 limits assumed): as the sequence (P02465 80-1117 limits assumed) above

[3] = molecular target: T2, pre-existing A546-labeled collagen network (Bos taurus, UniProt P02453+P02465); test: Dual-fluorescence incorporation of soluble collagen into a pre-existing collagen network (colocalization, PCC); type: biochemical, bovine; conditions: 0.5 M GlcNAc, 0.5 M Gal or 1 M GlucA; 0.025 mg/mL collagen, 1 hour, 37° C., n=10 images
T2 construct: acetic acid-extracted bovine type I collagen; purchased Advanced Biomatrix 5026-1 KIT; host or cells: extracted from bovine tissue, then labelled in house
T2 sequence (P02453 162-1217 limits assumed): as the sequence (P02453 162-1217 limits assumed) above
T2 sequence (P02465 80-1117 limits assumed): as the sequence (P02465 80-1117 limits assumed) above
Source text: Collagen was fluorescently labeled by the following procedure. Collagen was amine-labeled with either Alexa Fluor 546 NHS Ester (Thermo Fisher Scientific, A20002) or Alexa Fluor 488 TFP (Thermo Fisher Scientific, A30005) according to the protocol of Paten et al. (Paten, J. A., et al., 2019). Collagen was labeled with A488 solution in a 5:1 molar ratio of A488:collagen and then purified using a 10,000 MWCO Slide-A-Lyzer dialysis cassette (Thermo Fisher Scientific, 66380). The same process was performed with A546 in a 5:1 molar ratio of A546:collagen. Prior to use, the collagen concentration was determined by a modified Lowry assay (Bio-Rad, DC-Protein Assay), and the labeling efficiency was determined according to previous reports (Paten, J. A., et al., 2019).
To test if the critical saccharide concentrations would allow the soluble collagen to incorporate into a pre-existing matrix, despite the observed nucleation inhibition, first a collagen network was polymerized labeled with a A546 (red) at 37° C. using the example procedure described above. Then a mixture of A488-labeled collagen (green) with a nucleation-inhibiting concentration of either GlcNAc, Gal, or GlucA was added to the pre-existing A546-labeled collagen network. In all cases, distinct fibrillar networks of A488-collagen after a 1 hour incubation and exhaustive rinsing to reduce non-specific binding was observed.
The ability for soluble collagen to incorporate into a pre-established collagen network in the presence of monosaccharides was investigated with fluorescent imaging using an inverted microscope (Nikon, ECLIPSE Ti2) with a 0.45 numerical aperture 20× objective (Nikon, MRH08230) and a CMOS camera (Andor, Zyla 4.2). […]
The Imaging and Colocalization Analysis of the Dual-Fluorescence collagen Network was conducted using the following procedure. For imaging the A546-labeled collagen network, the excitation signal (CoolLED, PE-300-W-L-SB-40) was passed through a 530±15 nm filter, and the emission signal was detected after passing through a 575±20 nm filter (Chroma Technology, 49014). […]

physchem = conditions: 37 °C, pH 5, aqueous buffer
[4] = Baseline absorbance of the monosaccharide solutions without collagen; type: physicochemical; conditions: 313 nm, 37° C., no collagen, n=3
Source text: No collagen was present in these samples.

[5] = Stock solutions made near maximum solubility; conditions: 37 °C, pH 5, aqueous buffer
[6] = carboxylic acid of GlucA; cited from earlier work
[7] = collagen 0.5 mg/mL, 0.125M saccharide
[8] = collagen 0.5 mg/mL, 0.25M saccharide
[9] = collagen 1 mg/mL, 0.125M saccharide
[10] = collagen 1 mg/mL, 0.25M saccharide

Compound | effect on collagen assembly [1] | change in the collagen network under inverted microscope [2] | Pearson's correlation coefficient (PCC) of incorporated A488-collagen with pre-established network [3] | solubility (physchem) | Baseline absorbance ([4]; 0.125M saccharide) | Baseline absorbance ([4]; 0.25M saccharide) | Baseline absorbance ([4]; 0.5M saccharide) | critical concentration at which collagen assembly was completely inhibited [1] | effect on collagen assembly kinetics and ODmax [1] | lag time (lag phase at 30% assembly) [1] | Rates of Collagen Assembly (KA), 30% to 70% [1, 7] | Rates of Collagen Assembly (KA), 30% to 70% [1, 8] | Rates of Collagen Assembly (KA), 30% to 70% [1, 9] | Rates of Collagen Assembly (KA), 30% to 70% [1, 10] | solubility [5] | Baseline absorbance ([4]; 1M saccharide) | pKa [6] | Rates of Collagen Assembly (KA), 30% to 70% ([1]; collagen 0.5 mg/mL, 0.5M saccharide) | Rates of Collagen Assembly (KA), 30% to 70% ([1]; collagen 1 mg/mL, 0.5M saccharide)
CC(=O)O [acetic acid, reference compound] | little impact on the early kinetics but significantly reduced the steady-state absorbance |  |  |  |  |  |  |  |  |  |  |  |  |  |  |  |  |  | 
O=C[C@H](O)[C@@H](O)[C@@H](O)[C@H](O)CO [Gal, D(+)-galactose] | completely inhibited collagen assembly | minimal to no change | 0.53±0.11 | ~2000 mM (≈ 360 mg/mL) | 0.041 ± 0.001 | 0.043 ± 0.001 | 0.044 ± 0.001 | 0.5 M | a delay in the lag phase and growth phase and an increase in the maximum absorbance (ODmax) | 15 ± 0.6 min | 14.28 ± 1.48% per second | 7.22 ± 0.89% per second | 28.71 ± 1.54% per second | 15.96 ± 1.39% per second |  |  |  |  | 
CC(=O)N[C@H]1C(O)O[C@H](CO)[C@@H](O)[C@@H]1O (stereo partly drawn) [GlcNAc, N-acetyl-D-glucosamine] |  |  | 0.66±0.10 | ~1000 mM (≈ 221 mg/mL) | 0.061 ± 0.001 | 0.074 ± 0.001 | 0.105 ± 0.001 | 0.5 M | a delay in the lag phase and growth phase and an increase in the maximum absorbance (ODmax) | 16 ± 2.5 min | 13.32 ± 0.63% per second | 6.77 ± 0.31% per second | 17.91 ± 1.52% per second | 8.27 ± 0.54% per second |  |  |  |  | 
O.O=C[C@H](O)[C@@H](O)[C@H](O)[C@H](O)C(=O)[O-].[Na+] [GlucA, D-glucuronic acid sodium salt monohydrate] |  |  | 0.50±0.11 |  |  | 0.063 ± 0.000 | 0.082 ± 0.001 | 1 M |  |  |  | 6.84 ± 0.47% per second |  | 13.83 ± 1.10% per second | ~2000 mM | 0.120 ± 0.000 | 3.2 | 10.69 ± 0.53% per second | 40.64 ± 2.59% per second
